# Laboratory results as given in ChEMBL document CHEMBL1201862, “PubChem BioAssay data set” (2004).
#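 Five concentrations, 48 hours, 96-well plates. Here, GI50 denotes the concentration required for 50% inhibition of growth.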 Calls of active or inactive are those of the source. Cut-off read from the data, not from the text of the source: active = GI50 up to about 1.1 µM and inactive = higher.
# Tests used:
# Test in all cases: growth of human tumour cells (NCI), 48 h
# OVCAR-4 = system: OVCAR-4
# Hs-578T = system: Hs-578T
# MDA-N = system: MDA-N
# IGROV-1 = system: IGROV-1
# SF-268 = system: SF-268
# NCI/ADR-RES = system: NCI/ADR-RES
# SK-MEL-5 = system: SK-MEL-5
# TK-10 = system: TK-10
# SK-OV-3 = system: SK-OV-3
# MOLT-4 = system: MOLT-4
# COLO 205 = system: COLO 205
# CAKI-1 = system: CAKI-1
# HOP-92 = system: HOP-92
# UO-31 = system: UO-31
# HT-29 = system: HT-29
# U-251 = system: U-251
# HCT-116 = system: HCT-116
# CCRF-CEM = system: CCRF-CEM
# RXF 393 = system: RXF 393
# EKVX = system: EKVX
# OVCAR-5 = system: OVCAR-5
# HL-60 = system: HL-60
# OVCAR-3 = system: OVCAR-3
# ACHN = system: ACHN
# SF-295 = system: SF-295
# SK-MEL-2 = system: SK-MEL-2
# SW-620 = system: SW-620
# 786-0 = system: 786-0
# T47D = system: T47D
# DU-145 = system: DU-145
# A549 = system: A549
# RPMI-8226 = system: RPMI-8226
# K562 = system: K562
# SR = system: SR
# MDA-MB-435 = system: MDA-MB-435
# NCI-H460 = system: NCI-H460
# PC-3 = system: PC-3
# BT-549 = system: BT-549
# UACC-62 = system: UACC-62
# SK-MEL-28 = system: SK-MEL-28
# SNB-75 = system: SNB-75
# HOP-62 = system: HOP-62
# MDA-MB-231 = system: MDA-MB-231
# Malme-3M = system: Malme-3M
# OVCAR-8 = system: OVCAR-8
# NCI-H226 = system: NCI-H226
# SN12C = system: SN12C
# SNB-19 = system: SNB-19
# HCT-15 = system: HCT-15
# KM12 = system: KM12
# SF-539 = system: SF-539
# UACC-257 = system: UACC-257
# A498 = system: A498
# NCI-H23 = system: NCI-H23
# NCI-H522 = system: NCI-H522
# LOX IMVI = system: LOX IMVI
# M14 = system: M14
# MCF7 = system: MCF7
# HCC 2998 = system: HCC 2998
smiles,measurement,setting,value
O=C(O)CS(=O)(=O)C(c1ccccc1)c1ccccc1,GI50,OVCAR-4,> 100 µM (inactive)
same,GI50,Hs-578T,> 100 µM (inactive)
same,GI50,MDA-N,> 100 µM (inactive)
same,GI50,IGROV-1,> 100 µM (inactive)
same,GI50,SF-268,> 100 µM (inactive)
same,GI50,NCI/ADR-RES,> 100 µM (inactive)
same,GI50,SK-MEL-5,> 100 µM (inactive)
same,GI50,TK-10,> 100 µM (inactive)
same,GI50,SK-OV-3,> 100 µM (inactive)
same,GI50,MOLT-4,> 100 µM (inactive)
same,GI50,COLO 205,> 100 µM (inactive)
same,GI50,CAKI-1,> 100 µM (inactive)
same,GI50,HOP-92,> 100 µM (inactive)
same,GI50,UO-31,> 100 µM (inactive)
same,GI50,HT-29,> 100 µM (inactive)
same,GI50,U-251,> 100 µM (inactive)
same,GI50,HCT-116,> 100 µM (inactive)
same,GI50,CCRF-CEM,> 100 µM (inactive)
same,GI50,RXF 393,> 100 µM (inactive)
same,GI50,EKVX,> 100 µM (inactive)
same,GI50,OVCAR-5,> 100 µM (inactive)
same,GI50,HL-60,> 100 µM (inactive)
same,GI50,OVCAR-3,> 100 µM (inactive)
same,GI50,ACHN,> 100 µM (inactive)
same,GI50,SF-295,> 100 µM (inactive)
same,GI50,SK-MEL-2,> 100 µM (inactive)
same,GI50,SW-620,> 100 µM (inactive)
same,GI50,786-0,> 100 µM (inactive)
same,GI50,T47D,> 100 µM (inactive)
same,GI50,DU-145,> 100 µM (inactive)
same,GI50,A549,> 100 µM (inactive)
same,GI50,RPMI-8226,> 100 µM (inactive)
same,GI50,K562,> 100 µM (inactive)
same,GI50,SR,> 100 µM (inactive)
same,GI50,MDA-MB-435,> 100 µM (inactive)
same,GI50,NCI-H460,> 100 µM (inactive)
same,GI50,PC-3,> 100 µM (inactive)
same,GI50,BT-549,> 100 µM (inactive)
same,GI50,UACC-62,> 100 µM (inactive)
same,GI50,SK-MEL-28,> 100 µM (inactive)
same,GI50,SNB-75,> 100 µM (inactive)
same,GI50,HOP-62,> 100 µM (inactive)
same,GI50,MDA-MB-231,> 100 µM (inactive)
same,GI50,Malme-3M,> 100 µM (inactive)
same,GI50,OVCAR-8,> 100 µM (inactive)
same,GI50,NCI-H226,> 100 µM (inactive)
same,GI50,SN12C,> 100 µM (inactive)
same,GI50,SNB-19,> 100 µM (inactive)
same,GI50,HCT-15,> 100 µM
same,GI50,KM12,> 100 µM (inactive)
same,GI50,SF-539,> 100 µM (inactive)
same,GI50,UACC-257,> 100 µM (inactive)
same,GI50,A498,> 100 µM (inactive)
same,GI50,NCI-H23,> 100 µM (inactive)
same,GI50,NCI-H522,> 100 µM (inactive)
same,GI50,LOX IMVI,> 100 µM (inactive)
same,GI50,M14,> 100 µM (inactive)
same,GI50,MCF7,> 100 µM (inactive)
Cc1nc2ccc(Cl)cc2c2c1CCN2c1ccccc1,GI50,OVCAR-4,26.4 µM (inactive)
same,GI50,Hs-578T,21 µM (inactive)
same,GI50,MDA-N,1.5 µM (inactive)
same,GI50,IGROV-1,14.3 µM (inactive)
same,GI50,SF-268,23 µM (inactive)
same,GI50,NCI/ADR-RES,11.7 µM (inactive)
same,GI50,SK-MEL-5,7.53 µM (inactive)
same,GI50,TK-10,12.7 µM (inactive)
same,GI50,MOLT-4,7.03 µM (inactive)
same,GI50,COLO 205,2.76 µM (inactive)
same,GI50,CAKI-1,11.5 µM (inactive)
same,GI50,HOP-92,8.59 µM (inactive)
same,GI50,UO-31,8.89 µM (inactive)
same,GI50,HT-29,7.18 µM (inactive)
same,GI50,U-251,16.4 µM (inactive)
same,GI50,HCT-116,3.61 µM (inactive)
same,GI50,CCRF-CEM,5.62 µM (inactive)
same,GI50,RXF 393,3.47 µM (inactive)
same,GI50,HCC 2998,12.1 µM (inactive)
same,GI50,EKVX,21.2 µM (inactive)
same,GI50,HL-60,2.72 µM (inactive)
same,GI50,OVCAR-3,10.3 µM (inactive)
same,GI50,ACHN,16.9 µM (inactive)
same,GI50,SF-295,5.47 µM (inactive)
same,GI50,SW-620,18.6 µM (inactive)
same,GI50,786-0,10.4 µM (inactive)
same,GI50,T47D,14.5 µM (inactive)
same,GI50,DU-145,19.5 µM (inactive)
same,GI50,A549,15 µM (inactive)
same,GI50,RPMI-8226,12.4 µM (inactive)
same,GI50,K562,5.05 µM (inactive)
same,GI50,SR,14.3 µM (inactive)
same,GI50,MDA-MB-435,7.62 µM (inactive)
same,GI50,NCI-H460,7.74 µM (inactive)
same,GI50,PC-3,10.6 µM (inactive)
same,GI50,BT-549,15.3 µM (inactive)
same,GI50,UACC-62,10.3 µM (inactive)
same,GI50,SK-MEL-28,14 µM (inactive)
same,GI50,SNB-75,23.7 µM (inactive)
same,GI50,HOP-62,21.5 µM (inactive)
same,GI50,MDA-MB-231,2.3 µM (inactive)
same,GI50,Malme-3M,17.4 µM (inactive)
same,GI50,OVCAR-8,15 µM (inactive)
same,GI50,NCI-H226,7.89 µM (inactive)
same,GI50,SN12C,0.975 µM (active)
same,GI50,SNB-19,23.5 µM (inactive)
same,GI50,HCT-15,17.3 µM
same,GI50,KM12,17.5 µM (inactive)
same,GI50,SF-539,13.4 µM (inactive)
same,GI50,UACC-257,15.2 µM (inactive)
same,GI50,A498,14.8 µM (inactive)
same,GI50,NCI-H23,14.1 µM (inactive)
same,GI50,NCI-H522,11.7 µM (inactive)
same,GI50,LOX IMVI,10.3 µM (inactive)
same,GI50,MCF7,15.1 µM (inactive)
